Source: patent US8163740B2, “6-substituted benzoxazines” (Hoffmann-La Roche Inc., priority 2008, dated 2012)

target: recombinant human 5-HT5A receptor (Homo sapiens, UniProt P47898); experiment: [3H]LSD radioligand binding assay; conditions: not given
In short: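 Membranes from HEK-EBNA cells transiently expressing the receptor, with ~1 nM [3H]LSD in 50 mM Tris, 1 mM EGTA, 10 mM MgCl2, 10 μM pargyline, pH 7.4, SPA bead format. Incubated 120 min RT; nonspecific binding defined with 2 μM methiothepin. 10 concentrations in duplicate; IC50 converted to Ki via Cheng-Prusoff.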

Chain of recombinant human 5-HT5A receptor (P47898 whole entry): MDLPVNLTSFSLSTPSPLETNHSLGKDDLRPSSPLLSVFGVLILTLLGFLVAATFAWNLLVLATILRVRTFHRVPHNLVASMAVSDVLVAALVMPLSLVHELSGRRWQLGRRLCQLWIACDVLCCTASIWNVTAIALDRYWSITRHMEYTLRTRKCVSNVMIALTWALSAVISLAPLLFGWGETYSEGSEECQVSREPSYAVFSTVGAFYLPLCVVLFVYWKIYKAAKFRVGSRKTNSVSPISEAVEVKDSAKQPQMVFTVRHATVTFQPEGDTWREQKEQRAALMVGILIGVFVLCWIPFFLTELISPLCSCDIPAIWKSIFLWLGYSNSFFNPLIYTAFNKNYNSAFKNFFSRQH

For `CN1C2COCC1CN(CC(=O)Nc1ccc3c(c1)COC(N[C@@H]1CCc4ccccc41)=N3)C2` [Example 159, N-[2-((R)-Indan-1-ylamino)-4H-benzo[d][1,3]oxazin-6-yl]-2-(9-methyl-3-oxa-7,9-diaza-bicyclo[3.3.1]non-7-yl)-acetamide], the Ki was 0.0189 µM.

same assay, conditions: [3H]LSD (approximately 1 nM); membranes from HEK-EBNA cells transiently expressing 5-HT5A; Ki by Cheng-Prussoff equation; read-out: Ki

Point of comparison: `COc1cccc2c1C(NC1=Nc3ccc(Nc4cccc(C(F)(F)F)n4)cc3CO1)CO2` (racemic) [Example 59, rac-N^2-(4-Methoxy-2,3-dihydro-benzofuran-3-yl)-N^6-(6-trifluoromethyl-pyridin-2-yl)-4H-benzo[d][1,3]oxazine-2,6-diamine], Ki 0.00782 µM. Against it:
- Cc1nc(-c2ccc3c(c2)COC(N[C@@H]2CCc4ccccc42)=N3)no1 [Example 133, (R)-Indan-1-yl-[6-(5-methyl-[1,2,4]oxadiazol-3-yl)-4H-benzo[d][1,3]oxazin-2-yl]-amine] — 9.7-fold higher, 0.0757 µM
- CN1CCN(CC(=O)Nc2ccc3c(c2)COC(N[C@@H]2CCc4ccccc42)=N3)CC1 [Example 3, N-[2-((R)-Indan-1-ylamino)-4H-benzo[d][1,3]oxazin-6-yl]-2-(4-methyl-piperazin-1-yl)-acetamide] — 4.2-fold lower, 0.00184 µM
- COCCNCC(=O)Nc1ccc2c(c1)COC(NC1COc3cc(F)ccc31)=N2 (racemic) [Example 42, rac-N-[2-(6-Fluoro-2,3-dihydro-benzofuran-3-ylamino)-4H-benzo[d][1,3]oxazin-6-yl]-2-(2-methoxy-ethylamino)-acetamide] — 7.2-fold higher, 0.0564 µM
- O=S(=O)(Nc1ccc2c(c1)COC(NCCOc1ccccc1)=N2)c1ccccc1 [Example 109, N-[2-(2-Phenoxy-ethylamino)-4H-benzo[d][1,3]oxazin-6-yl]-benzenesulfonamide] — 4.1-fold higher, 0.0323 µM
- c1cc(NC2=Nc3ccc(NCc4nccs4)cc3CO2)cc(C2CC2)c1 [Example 127, N^2-(3-Cyclopropyl-phenyl)-N^6-thiazol-2-ylmethyl-4H-benzo[d][1,3]oxazine-2,6-diamine] — 4.8-fold higher, 0.0379 µM
- O=C(Nc1ccc2c(c1)COC(Nc1cccc(C3CC3)c1)=N2)C1CC1 [Example 128, Cyclopropanecarboxylic acid [2-(3-cyclopropyl-phenylamino)-4H-benzo[d][1,3]oxazin-6-yl]-amide] — 3-fold higher, 0.0235 µM
- Nc1ccc2c(c1)COC(NCCOc1ccccc1)=N2 [Example 87, N^2-(2-Phenoxy-ethyl)-4H-benzo[d][1,3]oxazine-2,6-diamine] — 2.2-fold lower, 0.0036 µM
- O=C(CN1CCSCC1)Nc1ccc2c(c1)COC(N[C@@H]1CCc3ccccc31)=N2 [Example 65, N-[2-((R)-Indan-1-ylamino)-4H-benzo[d][1,3]oxazin-6-yl]-2-thiomorpholin-4-yl-acetamide] — within 1.5-fold, 0.00762 µM
- CC(C)N1C2CCC1CC(NCC(=O)Nc1ccc3c(c1)COC(N[C@@H]1CCc4ccccc41)=N3)C2 (stereo partly drawn) [Example 76, N-[2-((R)-Indan-1-ylamino)-4H-benzo[d][1,3]oxazin-6-yl]-2-((exo)-8-isopropyl-8-aza-bicyclo[3.2.1]oct-3-ylamino)-acetamide] — 1.7-fold higher, 0.0135 µM
- O=S(=O)(Nc1ccc2c(c1)COC(Nc1cccc(C3CC3)c1)=N2)c1ccccc1 [Example 150, N-[2-(3-Cyclopropyl-phenylamino)-4H-benzo[d][1,3]oxazin-6-yl]-benzenesulfonamide] — 38-fold higher, 0.299 µM
- COc1cccc2c1C(NC1=Nc3ccc(N)cc3CO1)CCC2 (racemic) [Example 22, rac-N^2-(8-Methoxy-1,2,3,4-tetrahydro-naphthalen-1-yl)-4H-benzo[d][1,3]oxazine-2,6-diamine] — within 1.5-fold, 0.00772 µM
- CN1CCN(CC(=O)Nc2ccc3c(c2)COC(Nc2cccc(C4CC4)c2)=N3)CC1 [Example 126, N-[2-(3-Cyclopropyl-phenylamino)-4H-benzo[d][1,3]oxazin-6-yl]-2-(4-methyl-piperazin-1-yl)-acetamide] — 4.8-fold higher, 0.0377 µM
- CC(C)(O)CNCC(=O)Nc1ccc2c(c1)COC(N[C@@H]1CCCc3ccccc31)=N2 [Example 41, 2-(2-Hydroxy-2-methyl-propylamino)-N-{2-[(R)-(1,2,3,4-tetrahydro-naphthalen-1-yl)amino]-4H-benzo[d][1,3]oxazin-6-yl}-acetamide] — 4.2-fold higher, 0.033 µM
- O=S(=O)(Nc1ccc2c(c1)COC(N[C@@H]1CCc3ccccc31)=N2)c1ccccc1 [Example 83, N-[2-((R)-Indan-1-ylamino)-4H-benzo[d][1,3]oxazin-6-yl]-benzenesulfonamide] — 2.1-fold lower, 0.00369 µM
- COc1cccc2c1C(NC1=Nc3ccc(NC(=O)CN4CCOCC4)cc3CO1)CC2 (racemic) [Example 55, rac-N-[2-(7-Methoxy-indan-1-ylamino)-4H-benzo[d][1,3]oxazin-6-yl]-2-morpholin-4-yl-acetamide] — within 1.5-fold, 0.0103 µM
- O=C(CN1CCOCC1)Nc1ccc2c(c1)COC(N[C@@H]1CCCc3ccccc31)=N2 [Example 39, 2-Morpholin-4-yl-N-{2-[(R)-(1,2,3,4-tetrahydro-naphthalen-1-yl)amino]-4H-benzo[d][1,3]oxazin-6-yl}-acetamide] — 2.9-fold higher, 0.0228 µM
- COc1cccc2c1C(NC1=Nc3ccc(NC(=O)CN4CCN(C)C(CO)C4)cc3CO1)CC2 (stereo not shown) [Example 116, 2-(3-Hydroxymethyl-4-methyl-piperazin-1-yl)-N-[2-(7-methoxy-indan-1-ylamino)-4H-benzo[d][1,3]oxazin-6-yl]-acetamide] — 2.7-fold lower, 0.00289 µM
- COc1cccc2c1C(NC1=Nc3ccc(N)cc3CO1)CC2 (racemic) [Example 10, rac-N^2-(7-Methoxy-indan-1-yl)-4H-benzo[d][1,3]oxazine-2,6-diamine] — 6.5-fold lower, 0.0012 µM
- c1cncc(CNc2ccc3c(c2)COC(N[C@@H]2CCc4ccccc42)=N3)c1 [Example 88, N^2—(R)-Indan-1-yl-N^6-pyridin-3-ylmethyl-4H-benzo[d][1,3]oxazine-2,6-diamine] — 4.7-fold lower, 0.00168 µM
- COc1ccccc1CNC1=Nc2ccc(NC(=O)CN3CCN(C(C)C)CC3)cc2CO1 [Example 29, 2-(4-Isopropyl-piperazin-1-yl)-N-[2-(2-methoxy-benzylamino)-4H-benzo[d][1,3]oxazin-6-yl]-acetamide] — within 1.5-fold, 0.0109 µM
- COc1cccc2c1C(NC1=Nc3ccc(NS(=O)(=O)N(C)C)cc3CO1)CC2 (racemic) [Example 61, rac-N,N-(Dimethyl)-N′-{2-(7-Methoxy-indan-1-ylamino)-4H-benzo[d][1,3]oxazin-6-yl}-sulfamide] — 3-fold lower, 0.0026 µM
- Cc1ccc(CNC2=Nc3ccc(NC(=O)C4CC4)cc3CO2)o1 [Example 82, Cyclopropanecarboxylic acid {2-[(5-methyl-furan-2-ylmethyl)-amino]-4H-benzo[d][1,3]oxazin-6-yl}-amide] — within 1.5-fold, 0.0117 µM
- O=C(NCc1ccc2c(c1)COC(N[C@@H]1CCc3ccccc31)=N2)c1ccc(F)cc1 [Example 132, 4-Fluoro-N-[2-((R)-indan-1-ylamino)-4H-benzo[d][1,3]oxazin-6-ylmethyl]-benzamide] — 6.1-fold higher, 0.048 µM
- Nc1ccc2c(c1)COC(NC1COc3cc(F)ccc31)=N2 (racemic) [Example 34, rac-N^2-(6-Fluoro-2,3-dihydro-benzofuran-3-yl)-4H-benzo[d][1,3]oxazine-2,6-diamine] — 1.8-fold lower, 0.00426 µM
- COc1cccc2c1C(NC1=Nc3ccc(NS(=O)(=O)N(C)C)cc3CO1)CO2 (racemic) [Example 49, rac-N,N-(Dimethyl)-N′-{2-(4-Methoxy-2,3-dihydro-benzofuran-3-ylamino)-4H-benzo[d][1,3]oxazin-6-yl}-sulfamide] — 2.7-fold higher, 0.0211 µM
- c1csc(CNc2ccc3c(c2)COC(NC2CCCCCC2)=N3)n1 [Example 98, N^2-Cycloheptyl-N^6-thiazol-2-ylmethyl-4H-benzo[d][1,3]oxazine-2,6-diamine] — 2.5-fold higher, 0.0193 µM
- CN(C)S(=O)(=O)Nc1ccc2c(c1)COC(N[C@@H]1CCc3ccccc31)=N2 [Example 27, N,N-(Dimethyl)-N′-{2-((R)-indan-1-ylamino)-4H-benzo[d][1,3]oxazin-6-yl}-sulfamide] — 3.3-fold lower, 0.00236 µM
- COc1cccc2c1C(NC1=Nc3ccc(NC(=O)NC4CCN(C(C)C)CC4)cc3CO1)CO2 (racemic) [Example 14, rac-1-(1-Isopropyl-piperidin-4-yl)-3-[2-(4-methoxy-2,3-dihydro-benzofuran-3-ylamino)-4H-benzo[d][1,3]oxazin-6-yl]-urea] — 1.8-fold lower, 0.00437 µM
- FC(F)(F)c1cccc(Nc2ccc3c(c2)COC(N[C@@H]2CCc4ccccc42)=N3)n1 [Example 35, N^2-(R)-Indan-1-yl-N^6-(6-trifluoromethyl-pyridin-2-yl)-4H-benzo[d][1,3]oxazine-2,6-diamine] — within 1.5-fold, 0.00616 µM
- CN(C)S(=O)(=O)Nc1ccc2c(c1)COC(NC1CCOc3ccccc31)=N2 (racemic) [Example 91, rac-N,N-(Dimethyl)-N′-{2-(chroman-4-ylamino)-4H-benzo[d][1,3]oxazin-6-yl}-sulfamide] — 6.7-fold higher, 0.0525 µM
- COCC(=O)Nc1ccc2c(c1)COC(N[C@@H]1CCc3ccccc31)=N2 [Example 19, N-[2-((R)-Indan-1-ylamino)-4H-benzo[d][1,3]oxazin-6-yl]-2-methoxy-acetamide] — 1.9-fold lower, 0.0041 µM
- COc1cccc2c1C(NC1=Nc3ccc(NS(=O)(=O)c4ccccc4)cc3CO1)CO2 (racemic) [Example 115, rac-N-[2-(4-Methoxy-2,3-dihydro-benzofuran-3-ylamino)-4H-benzo[d][1,3]oxazin-6-yl]-benzenesulfonamide] — 2.7-fold higher, 0.0209 µM
- COc1cccc2c1C(NC1=Nc3ccc(C#N)cc3CO1)CO2 (racemic) [Example 141, rac-2-(4-Methoxy-2,3-dihydro-benzofuran-3-ylamino)-4H-benzo[d][1,3]oxazine-6-carbonitrile] — 20-fold higher, 0.16 µM
- O=S(=O)(Nc1ccc2c(c1)COC(N[C@@H]1CCc3ccccc31)=N2)C1CC1 [Example 79, Cyclopropanesulfonic acid [2-((R)-indan-1-ylamino)-4H-benzo[d][1,3]oxazin-6-yl]-amide] — 4.3-fold lower, 0.00181 µM

system: not given; experiment: not given; conditions: not given

`Cc1nc(-c2ccc3c(c2)COC(N[C@@H]2CCc4ccccc42)=N3)no1` [Example 133, (R)-Indan-1-yl-[6-(5-methyl-[1,2,4]oxadiazol-3-yl)-4H-benzo[d][1,3]oxazin-2-yl]-amine] showed a melting point of 138 °C.
